For series [1], the system named is MS-NASH mice. The series can be described thus: Low dose CCl4 (0.08 mL/kg) twice weekly for 8 weeks in MS-NASH mice on WDF. In kind it is in vivo, mouse. The text has this: (§1) Male MS-NASH (formally FATZO) mice were developed by Crown Bioscience as the new generation of mouse model with obese, metabolic disorder, diabetes and NAFLD/NASH that is more translatable to human diseases. The animals for this study were bred housed individually in IVC cages (Taicang, China) or open ventilated cages (Indianapolis, Ind.), and fed control diet (CD, Purina 5008 chow, LabDiet, St. Louis, Mo.) with distilled water ad libitum for the first 8 weeks after birth, then, stratified into different experimental groups based on body weight, serum ALT and AST. Room temperature was monitored and maintained at 22-26° C. with a 12-hour light cycle (06:00-18:00). C57B1/6J mice (The Jackson Laboratory, Ellsworth, Maine) were used as control strain and housed under the same conditions. All mice were maintained and treated in accordance with the guidelines of Association for Assessment and Accreditation of Laboratory Animal Care (AAALAC), and experimental protocols approved by the Institutional Animal Care and Use Committee (IACUC).
(§2) In all the experiments, body weights were recorded every 4 weeks. At the end of the experiments, all mice were euthanized by CO2 inhalation and confirmed with cervical dislocation approximately 24 hours after the last CCl4 administration.
(§3) Blood samples: Blood samples during the course of the experiment were collected from the tail or at the end of the experiment from cardiac puncture, from which, serum prepared for measuring AST and ALT by a clinical analyzer (Beckman-Coulter AU480; Brea, Calif.). In the low dose CCl4 repeated treatment group, in-life blood samples were taken—24 hours, and terminal blood samples taken, —24 hours after CCl4 doing, respectively. A separate experiment was performed to observe the acute time course at 24, 48 and 72 hours in response to a single dose of CCl4 at 0.2 mL/kg in MS-NASH mice on CD.
Liver contents: The right lobe of the liver (— 200 mg/animal) was collected and snap frozen in liquid nitrogen, placed in Lysing Matrix D Tubes with distilled water at 20% concentration (MP Biomedicals, Santa Anna, CA), homogenized in a Fastprep-FP120 cell disrupter (Thermo Fisher Savant) in cold condition for 30 seconds. The liver contents of triglyceride and cholesterol were analyzed by a clinical analyzer (Beckman-Coulter AU480) within 30 min of sample preparation.
(§4) Tissue processing: The liver tissues were fixed in 10% neutral buffered formalin (NBF) at 4° C. for 24 hours followed by baths of standard concentrations of alcohol then xylene to prepare the tissues for paraffin embedding. After being embedded in paraffin and cooled, five-micron sections were cut and stained for routine H&E and Picric Sirius Red.
(§5) Semi-quantitative scoring by a pathologist: The digital images were evaluated by a well-trained research pathologist blind of different study groups with the standard NASH criteria for semi-quantitative scoring commonly used in preclinical animal models and in patients. Hepatosteatosis, lobular inflammation, and hepatocyte balloon degeneration were scored individually from the H&E staining and then summarized as a standard NAFLD Activity Score (NAS). Fibrosis score was assessed systemically with pattern recognition from PSR staining. Three representative areas per liver were examined and the scores of each parameter from individual animal were averaged.
Computerized quantitative analysis: Computer software with […] (AI) machine learning algorithm for histology analysis from Halo (Indica Labs, Albuquerque, N. Mex.) or ImageDx (Reveal Biosciences, San Diego, Calif.) were used to analyze digitally scanned images of H&E and PSR staining for quantitative analysis of steatosis, ballooning, inflammation or fibrosis in a set of the same slides evaluated by the pathologist. […]

For series [2], the system named is MS-NASH mice. The experiment in a line: Survival rate in MS-NASH mice on WDF under CCl4. In kind it is in vivo, mouse. On the procedure:
(§6) All values are reported as Mean±SEM, unless noted otherwise. Model characterization were compared in MS-NASH mice on CD or WDF with or without CCl4; and effects of OCA were compared to vehicle with One-Way ANOVA for multiple groups or Holm-Sidak t-test for 2 groups. Survival curves of total MS-NASH mice and C57B1/6 mice were compared using Log-rank test for trend. Parametric correlation tests were conducted between pathologist scores and ImageDx quantitative analysis using Pearson correlation coefficient r. Statistical differences were denoted as p<0.05 or p<0.005. Prism software (GraphPad, version 8.3) was used for the statistical analysis and graphing.
(§7) This example illustrates survival rate in MS-NASH and C57B1/6 mice on WDF and treated high and low dose of CCL4.

Series [3] deals with MS-NASH mice. The series can be described thus: Low dose CCl4 (0.08 mL/kg) twice weekly for 8 weeks in MS-NASH mice on WDF. In kind it is in vivo, mouse. To be noted: week 12 and 14, 3 days after CCl4 dosing, vs mice on WDF only.
Series [4] has as its system MS-NASH mice. The experiment in a line: High dose CCl4 (0.2 mL/kg) twice weekly for 3 weeks in MS-NASH mice on WDF. In kind it is in vivo, mouse.
Description: as §1, §2, §3, §4, §5
Computerized quantitative analysis: Computer software with […] (AI) machine learning algorithm for histology analysis from Halo (Indica Labs, Albuquerque, N. Mex.) or ImageDx (Reveal Biosciences, San Diego, Calif.) were used to analyze digitally scanned images of H&E and PSR staining for quantitative analysis of steatosis, ballooning, inflammation or fibrosis in a set of the same slides evaluated by the pathologist. The analysis process included automated tissue identification, followed by segmentation of regions of interest for quantification of the following metrics: 1) Steatosis percentage: the area of total lipid accumulation subcategorized micro- or macro-vesicular within the entire section area; 2) Ballooning hepatocyte density: the density of ballooning hepatocytes within the entire section area; 3) Inflammatory cell density: the total number of inflammatory cells within the entire section area. All 3 parameters above were analyzed in the H&E stained section. 4)Fibrosis percentage: the total fibrosis area within the entire section area in the PSR stained section. […]

Series [5] has as its system mice model. The conditions noted are these: high chemical dosage (0.8-1.0 ml/kg) required to generate liver fibrosis phenotype; cited from earlier work.
The subject of series [6] is C57B1/6 mice. The experiment in a line: Survival rate in C57B1/6 mice on WDF under CCl4. Format: in vivo, mouse. The conditions noted are these: low dose CCl4; C57B1/6 compared to MS-NASH mice; trend not statistically significant. On the procedure: as §6, §7
In series [7] the test system is C57B1/6 mice. The series can be described thus: Therapeutic effects of OCA in WDF fed C57B1/6 mice treated low dose CCl4. To be noted: OCA 30 mg/kg orally once daily 8 weeks vs vehicle. In kind it is in vivo, mouse.
Description: as §1
(§8) In all the experiments, body weights were recorded every 4 weeks. […]
(§9) All values are reported as Mean±SEM, unless noted otherwise. […] Parametric correlation tests were conducted between pathologist scores and ImageDx quantitative analysis using Pearson correlation coefficient r. […]

The test system of series [8] is MS-NASH mice. The series can be described thus: Therapeutic effects of OCA in WDF fed MS-NASH mice treated low dose CCl4. Format: in vivo, mouse. The conditions noted are these: OCA 30 mg/kg orally once daily 8 weeks vs vehicle.
Description: as §1, §8, §9

Where [9] appears, read: CCl4 0.08 mL/kg twice weekly 8 weeks, WDF vs WDF+CCl4.
Setting [10] is: CCl4 0.08 mL/kg twice weekly 8 weeks, end of study.
Where [11] appears, read: CCl4 0.08 mL/kg twice weekly 8 weeks, with vs without CCl4.
Where [12] appears, read: CCl4 0.08 mL/kg, 24 hours after the last dose at end of experiment, compared to high dose CCl4.
Setting [13] is: CCl4 0.2 mL/kg IP twice weekly 3 weeks, vs CD or WDF without CCl4.
[14] abbreviates: CCl4 0.2 mL/kg twice weekly 3 weeks, MS-NASH mice on WDF.
The mark [15] stands for this setting: CCl4 0.2 mL/kg twice weekly 3 weeks, measured 24 hours after the last dose.
[16] abbreviates: WDF + CCl4 0.08 mL/kg twice weekly.

With `ClC(Cl)(Cl)Cl` [CCl4, carbon tetrachloride], in series [1] (setting [9]), the “liver fibrosis score evaluated by the pathologist” value is “significantly aggravated” and the “other aspects of liver pathology (NAS scores by the pathologist)” value is reported as “little influence”. Also, in series [1] (setting [10]), the “liver contents of cholesterol” value is listed as “significantly reduced” and the liver weight result is recorded as “significantly reduced”. Besides, the body weight entry in series [1] (CCl4 0.08 mL/kg twice weekly 8 weeks, vs mice without CCl4) is “reduced”. Besides, in series [1] (setting [11]), the “fibrosis area by Reveal ImageDx” value was “larger”; the “steatosis area, inflammatory cell infiltration and degenerated liver cell counts by Reveal ImageDx” value is “no significant difference”. Besides, in series [1] (setting [12]), the “elevation of serum ALT” value is listed as “not as dramatic” and the “elevation of serum AST” value is listed as “not as dramatic”. Moreover, the “NAFLD progression and fibrosis development” value in series [1] (MS-NASH mice fed WDF with 0.08 ml/kg CCl4) is listed as “accelerated”. The death in series [2] (high dose CCl4 (0.2 mL/kg twice weekly), within the first 3 weeks) is reported as about 20%. In series [2] (lower dose CCl4 (0.08 mL/kg twice weekly), end of 8-week experimental duration), this molecule gave a survival rate of 87.5%. Also, in series [3], the “in-life serum ALT level” value is given as “significantly lower” and the “in-life serum AST level” value is “significantly lower”. Moreover, in series [4] (setting [13]), the caloric intake result is listed as “significantly reduced” and the food intake result is “significantly reduced”. For the same molecule, in series [4] (CCl4 0.2 mL/kg IP twice weekly 3 weeks, vs MS-NASH mice on CD or WDF without CCl4), the body weight result is “significantly reduced”. In series [4] (setting [14]), the “fibrosis area by computer analysis software (Halo) from PSR images” value is about 8%; the “histopathology images (H&E, PSR)” value was “aggravated liver injury and centrilobular fibrosis”; the “pathology scores by the pathologist (steatosis, inflammation, ballooning, overall NAS, fibrosis score)” value is “failed to detect such enhanced pathology”. In series [4] (setting [15]), the “serum ALT” value is listed as “dramatically elevated” and the “serum AST” value is “dramatically elevated”. Further, the body weight result in series [5] is listed as “severe body weight loss”. Further, the survival rate result in series [6] was “tended to be lower”.

On to `CC[C@H]1[C@@H](O)[C@@H]2[C@H](CC[C@]3(C)[C@@H]([C@H](C)CCC(=O)O)CC[C@@H]23)[C@@]2(C)CC[C@@H](O)C[C@@H]12` [OCA, obeticholic acid], for which the “serum ALT level” value in series [7] and in series [8] was “no significant effect” in each case. The body weight result in series [7] (setting [16]) and in series [8] (setting [16]) was “no significant effect” each time.

The values are drawn from patent publication US20220330529A1, “METHODS FOR GENERATING ANIMAL MODELS FOR NONALCOHOLIC FATTY LIVER DISEASE” (INNOLAND BIOSCIENCES (ZHEJIANG) CO., LTD., priority 2019, published 2022).
